Data on four compounds can be found in ChEMBL document CHEMBL1145330, “NMR structure of a potent small molecule inhibitor bound to human keratinocyte fatty acid-binding protein” (J Med Chem, 2006).

Molecules are shown by their SMILES.

In experiment [1] the target is Fatty acid-binding protein, adipocyte (Homo sapiens, UniProt P15090). The experiment can be described thus: Binding affinity to ap2.
Experiment [2] deals with Fatty acid-binding protein 5 (Homo sapiens, UniProt Q01469). As to the kind of experiment: Binding affinity to human kFABP.
Sequence of Fatty acid-binding protein 5 (Q01469 whole entry): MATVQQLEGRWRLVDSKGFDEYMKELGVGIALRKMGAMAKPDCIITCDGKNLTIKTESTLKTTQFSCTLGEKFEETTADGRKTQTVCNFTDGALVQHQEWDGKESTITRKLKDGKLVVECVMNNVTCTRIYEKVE

Sequence of Fatty acid-binding protein, adipocyte (P15090 whole entry): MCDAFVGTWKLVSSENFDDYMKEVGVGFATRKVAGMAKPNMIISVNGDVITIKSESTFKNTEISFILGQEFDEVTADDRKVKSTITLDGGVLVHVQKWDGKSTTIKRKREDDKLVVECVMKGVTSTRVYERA

As a reminder, the Ki is a measure of affinity in units of concentration, obtained from inhibition or displacement. Regarding `O=C(O)[C@@H](O)c1cccc(OCc2ccccc2Cl)c1OCc1ccccc1Cl`, the affinity in experiment [1] corresponds to a Ki of 2.5 nM.
The compound `O=C(O)Cc1cccc(OCc2ccccc2Cl)c1OCc1ccccc1Cl` came in with a Ki in experiment [1] of 16 nM.
Turning to `OCC(O)c1cccc(OCc2ccccc2Cl)c1OCc1ccccc1Cl` (stereo unspecified), the Ki in experiment [1] and in experiment [2] was more than 2000 nM each time.
Turning to `O=C(O)C(=O)c1cccc(OCc2ccccc2Cl)c1OCc1ccccc1Cl`, the Ki in experiment [1] and in experiment [2] was less than 2 nM in each case.
